# Columns and labels:
# [1] = target: Leucine-rich repeat serine/threonine-protein kinase 2 (Homo sapiens, UniProt Q5S007); test: Inhibition of LRRK2 (unknown origin)
# [2] = Clearance in mouse at 1 mg/kg, iv; assay type: ADME, organism-based; conditions: in vivo
# [3] = Inhibition of LRRK2 G2019S mutant-induced neuronal toxicity in rat cortical neurons
# Brain = test: Druguptake in mouse brain at 1 mg/kg, iv; assay type: ADME, organism-based; conditions: in vivo
# [4] = target: Leucine-rich repeat serine/threonine-protein kinase 2 (Homo sapiens, UniProt Q5S007, G2019S); test: Inhibition of LRRK2 G2019S mutant in human HEK293 cells assessed as phosphorylation at Ser935; assay type: cell-based
# Leucine-rich repeat serine/threonine-protein kinase 2 (Homo sapiens, UniProt Q5S007, G2019S), sequence (Q5S007 whole entry G2019S): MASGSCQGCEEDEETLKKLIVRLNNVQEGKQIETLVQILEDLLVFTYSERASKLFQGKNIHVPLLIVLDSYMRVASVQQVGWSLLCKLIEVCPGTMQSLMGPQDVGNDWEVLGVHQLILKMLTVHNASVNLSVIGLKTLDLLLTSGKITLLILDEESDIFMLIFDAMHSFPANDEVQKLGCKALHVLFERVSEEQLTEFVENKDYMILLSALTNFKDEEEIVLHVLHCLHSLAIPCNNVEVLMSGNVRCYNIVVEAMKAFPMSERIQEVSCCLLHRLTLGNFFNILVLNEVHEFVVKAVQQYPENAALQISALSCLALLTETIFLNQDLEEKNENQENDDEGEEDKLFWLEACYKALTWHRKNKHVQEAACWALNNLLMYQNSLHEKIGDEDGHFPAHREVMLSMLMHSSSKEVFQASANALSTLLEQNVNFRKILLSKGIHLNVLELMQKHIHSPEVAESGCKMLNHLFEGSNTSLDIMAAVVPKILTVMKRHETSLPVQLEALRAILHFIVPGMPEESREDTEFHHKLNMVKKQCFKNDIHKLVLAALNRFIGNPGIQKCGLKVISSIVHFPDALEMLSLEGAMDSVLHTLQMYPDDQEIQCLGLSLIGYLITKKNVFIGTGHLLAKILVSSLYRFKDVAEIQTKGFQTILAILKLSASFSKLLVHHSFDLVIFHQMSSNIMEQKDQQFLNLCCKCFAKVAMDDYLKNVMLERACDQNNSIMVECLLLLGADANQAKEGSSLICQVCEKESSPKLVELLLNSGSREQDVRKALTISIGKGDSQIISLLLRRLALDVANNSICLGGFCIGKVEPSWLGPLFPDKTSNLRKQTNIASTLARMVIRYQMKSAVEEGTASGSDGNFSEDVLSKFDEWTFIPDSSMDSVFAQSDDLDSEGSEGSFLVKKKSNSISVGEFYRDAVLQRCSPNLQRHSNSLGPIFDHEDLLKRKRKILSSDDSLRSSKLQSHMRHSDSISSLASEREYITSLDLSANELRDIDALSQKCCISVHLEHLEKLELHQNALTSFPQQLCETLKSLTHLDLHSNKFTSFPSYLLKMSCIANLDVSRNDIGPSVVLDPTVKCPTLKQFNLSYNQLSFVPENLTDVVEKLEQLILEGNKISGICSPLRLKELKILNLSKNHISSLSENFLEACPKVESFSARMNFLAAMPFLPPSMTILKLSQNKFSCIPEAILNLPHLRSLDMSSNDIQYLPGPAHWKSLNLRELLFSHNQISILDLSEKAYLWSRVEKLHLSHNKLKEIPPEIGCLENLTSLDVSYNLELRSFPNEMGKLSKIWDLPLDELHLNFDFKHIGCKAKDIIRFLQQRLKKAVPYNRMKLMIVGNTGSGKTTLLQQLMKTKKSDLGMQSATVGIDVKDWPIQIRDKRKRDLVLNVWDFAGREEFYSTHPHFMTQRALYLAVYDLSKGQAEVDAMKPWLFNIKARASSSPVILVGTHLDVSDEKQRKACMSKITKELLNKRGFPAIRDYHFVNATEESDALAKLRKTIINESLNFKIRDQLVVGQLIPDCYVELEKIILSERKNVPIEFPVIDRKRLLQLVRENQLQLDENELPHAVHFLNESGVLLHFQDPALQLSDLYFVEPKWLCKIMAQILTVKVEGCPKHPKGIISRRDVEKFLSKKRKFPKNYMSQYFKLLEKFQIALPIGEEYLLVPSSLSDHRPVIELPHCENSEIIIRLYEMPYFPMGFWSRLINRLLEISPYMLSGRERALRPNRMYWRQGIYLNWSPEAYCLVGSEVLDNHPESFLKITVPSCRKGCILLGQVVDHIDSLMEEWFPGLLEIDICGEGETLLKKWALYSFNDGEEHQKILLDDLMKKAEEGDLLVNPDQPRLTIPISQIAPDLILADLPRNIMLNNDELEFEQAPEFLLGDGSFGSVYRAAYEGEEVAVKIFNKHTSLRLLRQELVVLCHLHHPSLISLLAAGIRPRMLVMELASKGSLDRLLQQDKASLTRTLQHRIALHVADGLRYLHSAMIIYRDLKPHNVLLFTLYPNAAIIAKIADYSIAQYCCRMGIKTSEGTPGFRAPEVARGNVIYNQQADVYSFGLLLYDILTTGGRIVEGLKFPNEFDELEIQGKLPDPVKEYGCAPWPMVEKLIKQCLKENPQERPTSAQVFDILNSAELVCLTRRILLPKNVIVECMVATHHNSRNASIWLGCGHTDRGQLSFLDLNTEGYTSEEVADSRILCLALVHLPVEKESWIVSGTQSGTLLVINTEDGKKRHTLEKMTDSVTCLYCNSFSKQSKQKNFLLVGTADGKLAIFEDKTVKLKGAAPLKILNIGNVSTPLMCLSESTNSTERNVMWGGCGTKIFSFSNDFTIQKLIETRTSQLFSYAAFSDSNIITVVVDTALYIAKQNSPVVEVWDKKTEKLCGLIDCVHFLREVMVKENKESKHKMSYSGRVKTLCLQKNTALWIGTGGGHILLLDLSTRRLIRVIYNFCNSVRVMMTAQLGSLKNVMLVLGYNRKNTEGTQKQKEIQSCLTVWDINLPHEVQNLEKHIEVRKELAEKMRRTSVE
# Leucine-rich repeat serine/threonine-protein kinase 2 (Homo sapiens, UniProt Q5S007), sequence (Q5S007 whole entry): as the sequence (Q5S007 whole entry G2019S) above, with S2019G counted along it
IC50 [1],clearance [2],Drug uptake (Brain),IC50 [4],SMILES,EC50 [3]
7 nM,0.138 L/h/kg,4%,–,COc1cc(N2CCOCC2)ccc1Nc1ncc(F)c(Nc2ccccc2NS(C)(=O)=O)n1,100 nM
6 nM,–,–,94 nM,CN1CCN(c2ccc(OCc3ccccc3)c(C(=O)Nc3cccnc3)c2)CC1,–

SMILES,IC50 [1],clearance [2],Drug uptake (Brain),IC50 [4],EC50 [3]
COc1cc(C(=O)N2CCC(N3CCN(C)CC3)CC2)ccc1Nc1ncc2c(n1)N(C)c1ccccc1C(=O)N2C,6 nM,–,–,–,–

# — ChEMBL document CHEMBL3603772, “Chemical Biology of Leucine-Rich Repeat Kinase 2 (LRRK2) Inhibitors” (J Med Chem, 2015)
